Assay results: the supplement of paper PMC4862054
Values joined by “and” are separate entries in the source; they are usually repeats but may differ in a detail not shown here. Equal entries are not always repeated.

Tests used:
Settings in all cases: incubation time: 72 h
BT-474 [1] = test: normalised viability (% of control), CellTiter-Blue; higher = more viable cells (about 100 = DMSO control)
Description: (§1)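 DSRT, CellTiter-Blue viability, 72 h incubation. Signal is normalised to DMSO and benzethonium chloride controls. Value is the normalised response at dose 3.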

BT-549 [2] = test: as above
Description: as §1

CAL-148 [3] = test: as above
Description: as §1

CAL-51 [4] = test: as above
Description: as §1

CAL-85-1 [5] = test: as above
Description: as §1

HCC1599 [6] = test: as above
Description: as §1

HCC1937 [7] = test: as above
Description: as §1

HDQ-P1 [8] = test: as above
Description: as §1

Hs578T [9] = test: as above
Description: as §1

MDA-MB-231 [10] = test: as above
Description: as §1

MDA-MB-436 [11] = test: as above
Description: as §1

MDA-MB-468 [12] = test: as above
Description: as §1

MFM-223 [13] = test: as above
Description: as §1

SK-BR-3 [14] = test: as above
Description: as §1

BT-474 [15] = test: normalised viability (% of control), CellTiter-Blue; higher = more viable cells (100 = DMSO, 0 = benzethonium chloride kill control)
Description: (§2)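 DSRT, CellTiter-Blue viability, 72 h incubation. Signal is normalised to DMSO and benzethonium chloride controls. Value is the normalised response at dose 1.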

BT-549 [16] = test: as above
Description: as §2

CAL-120 = test: as above
Description: as §2

CAL-148 [17] = test: as above
Description: as §2

CAL-51 [18] = test: as above
Description: as §2

CAL-85-1 [19] = test: as above
Description: as §2

DU-4475 = test: as above
Description: as §2

HCC1143 = test: as above
Description: as §2

HCC1599 [20] = test: as above
Description: as §2

HCC1937 [21] = test: as above
Description: as §2

HDQ-P1 [22] = test: as above
Description: as §2

Hs578T [23] = test: as above
Description: as §2

MDA-MB-231 [24] = test: as above
Description: as §2

MDA-MB-436 [25] = test: as above
Description: as §2

MDA-MB-453 = test: as above
Description: as §2

MDA-MB-468 [26] = test: as above
Description: as §2

MFM-223 [27] = test: as above
Description: as §2

SK-BR-3 [28] = test: as above
Description: as §2

O=C(Nc1c[nH]nc1-c1nc2ccc(CN3CCOCC3)cc2[nH]1)NC1CC1 [AT9283]
normalised viability (BT-474 [1]; 100 nM): 112% | normalised viability (BT-549 [2]; 100 nM): 86% | normalised viability (CAL-148 [3]; 10 nM): 82.7% | normalised viability (CAL-51 [4]; 10 nM): 100% | normalised viability (CAL-85-1 [5]; 10 nM): 85.7% | normalised viability (HCC1599 [6]; 100 nM): 94.8% | normalised viability (HCC1937 [7]; 100 nM): 60.9% | normalised viability (HDQ-P1 [8]; 10 nM): 112% | normalised viability (Hs578T [9]; 100 nM): 64.4% | normalised viability (MDA-MB-231 [10]; 100 nM): 75.2% | normalised viability (MDA-MB-436 [11]; 100 nM): 99% | normalised viability (MDA-MB-468 [12]; 100 nM): 29.4% | normalised viability (MFM-223 [13]; 100 nM): 64% | normalised viability (SK-BR-3 [14]; 100 nM): 53% | normalised viability (BT-474 [15]; 1 nM): 96.6% | normalised viability (BT-549 [16]; 1 nM): 98.5% | normalised viability (CAL-120; 1 nM): 87.1% | normalised viability (CAL-148 [17]; 1 nM): 91.3% | normalised viability (CAL-51 [18]; 1 nM): 107% | normalised viability (CAL-85-1 [19]; 1 nM): 88.9% | normalised viability (DU-4475; 1 nM): 95.5% | normalised viability (HCC1143; 1 nM): 87.1% | normalised viability (HCC1599 [20]; 1 nM): 101% | normalised viability (HCC1937 [21]; 1 nM): 95.6% | normalised viability (HDQ-P1 [22]; 1 nM): 103% | normalised viability (Hs578T [23]; 1 nM): 117% | normalised viability (MDA-MB-231 [24]; 1 nM): 91.6% | normalised viability (MDA-MB-436 [25]; 1 nM): 98.8% | normalised viability (MDA-MB-453; 1 nM): 100% | normalised viability (MDA-MB-468 [26]; 1 nM): 114% | normalised viability (MFM-223 [27]; 1 nM): 102% | normalised viability (SK-BR-3 [28]; 1 nM): 104%

COc1cc(CCc2cc(NC(=O)c3ccc(N4CC(C)NC(C)C4)cc3)n[nH]2)cc(OC)c1 (stereo not drawn) [AZD4547]
normalised viability (BT-474 [1]; 10 nM): 131% | normalised viability (BT-549 [2]; 10 nM): 109% | normalised viability (CAL-148 [3]; 1 nM): 97.5% | normalised viability (CAL-51 [4]; 1 nM): 103% | normalised viability (CAL-85-1 [5]; 1 nM): 101% | normalised viability (HCC1599 [6]; 10 nM): 83.7% | normalised viability (HCC1937 [7]; 10 nM): 91.8% | normalised viability (HDQ-P1 [8]; 1 nM): 112% | normalised viability (Hs578T [9]; 10 nM): 92.7% | normalised viability (MDA-MB-231 [10]; 10 nM): 124% | normalised viability (MDA-MB-436 [11]; 10 nM): 102% | normalised viability (MDA-MB-468 [12]; 10 nM): 108% | normalised viability (MFM-223 [13]; 10 nM): 59.2% | normalised viability (SK-BR-3 [14]; 10 nM): 97.5% | normalised viability (BT-474 [15]; 0.1 nM): 112% | normalised viability (BT-549 [16]; 0.1 nM): 111% | normalised viability (CAL-120; 0.1 nM): 93.6% | normalised viability (CAL-148 [17]; 0.1 nM): 113% | normalised viability (CAL-51 [18]; 0.1 nM): 117% | normalised viability (CAL-85-1 [19]; 0.1 nM): 89.7% | normalised viability (DU-4475; 0.1 nM): 95.7% | normalised viability (HCC1143; 0.1 nM): 96% | normalised viability (HCC1599 [20]; 0.1 nM): 115% | normalised viability (HCC1937 [21]; 0.1 nM): 105% | normalised viability (HDQ-P1 [22]; 0.1 nM): 139% | normalised viability (Hs578T [23]; 0.1 nM): 108% | normalised viability (MDA-MB-231 [24]; 0.1 nM): 100% | normalised viability (MDA-MB-436 [25]; 0.1 nM): 94.4% | normalised viability (MDA-MB-453; 0.1 nM): 105% | normalised viability (MDA-MB-468 [26]; 0.1 nM): 125% | normalised viability (MFM-223 [27]; 0.1 nM): 91.8% | normalised viability (SK-BR-3 [28]; 0.1 nM): 102%

Cc1nc(Nc2ncc(C(=O)Nc3c(C)cccc3Cl)s2)cc(N2CCN(CCO)CC2)n1 [Dasatinib]
normalised viability (BT-474 [1]; 10 nM): 117% and 108% | normalised viability (BT-549 [2]; 10 nM): 91.5% and 93.8% | normalised viability (CAL-148 [3]; 1 nM): 98.7% and 85.7% | normalised viability (CAL-51 [4]; 1 nM): 100% and 106% | normalised viability (CAL-85-1 [5]; 1 nM): 100% and 99.7% | normalised viability (HCC1599 [6]; 10 nM): 105% and 123% | normalised viability (HCC1937 [7]; 10 nM): 87.7% and 94.3% | normalised viability (HDQ-P1 [8]; 1 nM): 92.8% and 87.5% | normalised viability (Hs578T [9]; 10 nM): 77.6% and 80.5% | normalised viability (MDA-MB-436 [11]; 10 nM): 102% and 88.7% | normalised viability (MFM-223 [13]; 10 nM): 91.8% and 88% | normalised viability (SK-BR-3 [14]; 10 nM): 89.4% and 82.9% | normalised viability (BT-474 [15]; 0.1 nM): 97.5% and 85.4% | normalised viability (BT-549 [16]; 0.1 nM): 101% and 89.2% | normalised viability (CAL-120; 0.1 nM): 104% and 85.6% | normalised viability (CAL-148 [17]; 0.1 nM): 104% and 96.1% | normalised viability (CAL-51 [18]; 0.1 nM): 105% and 114% | normalised viability (CAL-85-1 [19]; 0.1 nM): 97.2% and 88.5% | normalised viability (DU-4475; 0.1 nM): 109% and 110% | normalised viability (HCC1143; 0.1 nM): 102% and 84.5% | normalised viability (HCC1599 [20]; 0.1 nM): 106% and 88.6% | normalised viability (HDQ-P1 [22]; 0.1 nM): 126% and 109% | normalised viability (Hs578T [23]; 0.1 nM): 107% and 97.2% | normalised viability (MDA-MB-231 [24]; 0.1 nM): 110% and 86.5% | normalised viability (MDA-MB-436 [25]; 0.1 nM): 94.8% and 91.2% | normalised viability (MDA-MB-453; 0.1 nM): 103% and 97.2% | normalised viability (MDA-MB-468 [26]; 0.1 nM): 109% and 100% | normalised viability (MFM-223 [27]; 0.1 nM): 99.2% and 94.2% | normalised viability (SK-BR-3 [28]; 0.1 nM): 98.2% and 92.7%
